Reference: patent US11213030B2, “4-(3,4-dihydronaphth-1-yl or 2H-chromen-4-yl)-5-hydroxy-2H-pyradizin-3-ones as herbicides” (FMC Corporation, priority 2017, dated 2022)

Key:
Format in all cases: in vivo
[1] = test system: barnyardgrass (Echinochloa crus-galli); experiment: Test A postemergence, barnyardgrass; conditions: 0 to 100 scale
Text: (§1) Seeds of plant species selected from barnyardgrass (Echinochloa crus-galli), kochia (Kochia scoparia), ragweed (common ragweed, Ambrosia elatior), ryegrass, It. (Italian ryegrass, Lolium multiflorum), foxtail, green (green foxtail, Setaria viridis), and pigweed (Amaranthus retroflexus) were planted into a blend of loam soil and sand and treated preemergence with a directed soil spray using test chemicals formulated in a non-phytotoxic solvent mixture which included a surfactant. At the same time, plants selected from these weed species and also wheat (Triticum aestivum), corn (Zea mays), blackgrass (Alopecurus myosuroides), and galium (catchweed bedstraw, Galium aparine) were planted in pots containing the same blend of loam soil and sand and treated with postemergence applications of test chemicals formulated in the same manner. Plants ranged in height from 2 to 10 cm and were in the one- to two-leaf stage for the postemergence treatment. Treated plants and untreated controls were maintained in a greenhouse for approximately 10 d, after which time all treated plants were compared to untreated controls and visually evaluated for injury. Plant response ratings, summarized in Table A, are based on a 0 to 100 scale where 0 is no effect and 100 is complete control. A dash (-) response means no test result.

kochia (Kochia scoparia) [2] = experiment: Test A postemergence, kochia; conditions: 0 to 100 scale
Text: as §1

Foxtail, Giant [3] = experiment: Test A preemergence, giant foxtail; conditions: 0 to 100 scale
[4] = test system: barnyardgrass (Echinochloa crus-galli); experiment: Test A preemergence, barnyardgrass; conditions: 0 to 100 scale
Text: as §1

corn (Zea mays) = experiment: Test A postemergence, corn; conditions: 0 to 100 scale
Text: as §1

rice (Oryza sativa) = experiment: Test B flooded paddy test, rice; conditions: Flood, 250 g ai/ha applied to paddy water, 2-leaf stage, 13 to 15 d; scale of 0 to 100 where 0 is no effect and 100 is complete control
Method: (§2) Plant species in the flooded paddy test selected from rice (Oryza sativa), sedge, umbrella (small-flower umbrella sedge, Cyperus difformis), ducksalad (Heteranthera limosa), and barnyardgrass (Echinochloa crus-galli) were grown to the 2-leaf stage for testing. At the time of treatment, test pots were flooded to 3 cm above the soil surface, treated by application of test compounds directly to the paddy water, and then maintained at that water depth for the duration of the test. Treated plants and controls were maintained in a greenhouse for 13 to 15 d, after which time all species were compared to controls and visually evaluated. Plant response ratings, summarized in Table B, are based on a scale of 0 to 100 where 0 is no effect and 100 is complete control. A dash (-) response means no test result.

[5] = test system: barnyardgrass (Echinochloa crus-galli); experiment: Test B flooded paddy test, barnyardgrass; conditions: Flood, 250 g ai/ha applied to paddy water, 2-leaf stage, 13 to 15 d; scale of 0 to 100 where 0 is no effect and 100 is complete control
Method: as §2

[6] = test system: ducksalad (Heteranthera limosa); experiment: Test B flooded paddy test, ducksalad; conditions: Flood, 250 g ai/ha applied to paddy water, 2-leaf stage, 13 to 15 d; scale of 0 to 100 where 0 is no effect and 100 is complete control
Method: as §2

kochia (Kochia scoparia) [7] = experiment: Test A preemergence, kochia; conditions: 0 to 100 scale
Text: as §1

[8] = test system: pigweed (Amaranthus retroflexus); experiment: Test A postemergence, pigweed; conditions: 0 to 100 scale
Text: as §1

[9] = test system: galium (catchweed bedstraw, Galium aparine); experiment: Test A postemergence, galium; conditions: 0 to 100 scale
Text: as §1

[10] = test system: blackgrass (Alopecurus myosuroides); experiment: Test A postemergence, blackgrass; conditions: 0 to 100 scale
Text: as §1

[11] = test system: ryegrass, It. (Italian ryegrass, Lolium multiflorum); experiment: Test A preemergence, Italian ryegrass; conditions: 0 to 100 scale
Text: as §1

[12] = test system: ragweed (common ragweed, Ambrosia elatior); experiment: Test A preemergence, ragweed; conditions: 0 to 100 scale
Text: as §1

[13] = test system: pigweed (Amaranthus retroflexus); experiment: Test A preemergence, pigweed; conditions: 0 to 100 scale
Text: as §1

[14] = test system: ragweed (common ragweed, Ambrosia elatior); experiment: Test A postemergence, ragweed; conditions: 0 to 100 scale
Text: as §1

[15] = test system: wheat (Triticum aestivum); experiment: Test A postemergence, wheat; conditions: 0 to 100 scale
Text: as §1

[16] = test system: ryegrass, It. (Italian ryegrass, Lolium multiflorum); experiment: Test A postemergence, Italian ryegrass; conditions: 0 to 100 scale; for Plant response rating, Ryegrass, Italian: 500 g ai/ha
Text: as §1

[17] = test system: sedge, umbrella (small-flower umbrella sedge, Cyperus difformis); experiment: Test B flooded paddy test, umbrella sedge; conditions: Flood, 250 g ai/ha applied to paddy water, 2-leaf stage, 13 to 15 d; scale of 0 to 100 where 0 is no effect and 100 is complete control
Method: as §2

Foxtail, Giant [18] = experiment: Test A postemergence, giant foxtail; conditions: 0 to 100 scale

| SMILES | Plant response rating, Barnyardgrass ([1]; 125 g ai/ha) | Plant response rating, Barnyardgrass ([1]; 500 g ai/ha) | Plant response rating, Kochia (kochia (Kochia scoparia) [2]; 125 g ai/ha) | Plant response rating, Kochia (kochia (Kochia scoparia) [2]; 500 g ai/ha) | Plant response rating, Foxtail, Giant (Foxtail, Giant [3]; 125 g ai/ha) | Plant response rating, Foxtail, Giant (Foxtail, Giant [3]; 500 g ai/ha) | Plant response rating, Barnyardgrass ([4]; 125 g ai/ha) | Plant response rating, Barnyardgrass ([4]; 500 g ai/ha) | Plant response rating, Corn (corn (Zea mays); 125 g ai/ha) | Plant response rating, Corn (corn (Zea mays); 500 g ai/ha) | Plant response rating, Rice (rice (Oryza sativa)) | Plant response rating, Barnyardgrass [5] | Plant response rating, Ducksalad [6] | Plant response rating, Kochia (kochia (Kochia scoparia) [7]; 125 g ai/ha) | Plant response rating, Kochia (kochia (Kochia scoparia) [7]; 500 g ai/ha) | Plant response rating, Pigweed ([8]; 125 g ai/ha) | Plant response rating, Pigweed ([8]; 500 g ai/ha) | Plant response rating, Galium ([9]; 125 g ai/ha) | Plant response rating, Galium ([9]; 500 g ai/ha) | Plant response rating, Blackgrass ([10]; 125 g ai/ha) | further results |
| --- | --- | --- | --- | --- | --- | --- | --- | --- | --- | --- | --- | --- | --- | --- | --- | --- | --- | --- | --- | --- | --- |
| COc1c(C)nn(C)c(=O)c1C1=CCC(C)(C)c2ccccc21 [Compound 6] | 0 | 0 | 0 | 0 | 0 | 0 | 0 | 30 | 0 | 0 | 0 | 0 | 0 | 0 | 40 | 0 | 0 | 0 | 0 | 0 | Plant response rating, Blackgrass ([10]; 500 g ai/ha): 20; Plant response rating, Ryegrass, It. ([11]; 125 g ai/ha): 0; Plant response rating, Ryegrass, It. ([11]; 500 g ai/ha): 0; Plant response rating, Ragweed ([12]; 125 g ai/ha): 0; Plant response rating, Ragweed ([12]; 500 g ai/ha): 0; Plant response rating, Pigweed ([13]; 125 g ai/ha): 0; Plant response rating, Pigweed ([13]; 500 g ai/ha): 0; Plant response rating, Ragweed ([14]; 125 g ai/ha): 0; Plant response rating, Ragweed ([14]; 500 g ai/ha): 20; Plant response rating, Wheat ([15]; 125 g ai/ha): 0; Plant response rating, Wheat ([15]; 500 g ai/ha): 0; Plant response rating, Ryegrass, Italian [16]: 0; Plant response rating, Sedge, Umbrella [17]: 0; Plant response rating, Foxtail, Giant (Foxtail, Giant [18]; 125 g ai/ha): 0; Plant response rating, Foxtail, Giant (Foxtail, Giant [18]; 500 g ai/ha): 0 |
| Cc1nn(C)c(=O)c(C2=CCC(C)(C)c3ccccc32)c1O [Compound 7] | 10 | 30 | 30 | 70 | 0 | 0 | 0 | 0 | 0 | 10 | 0 | 0 | 0 | 0 | 0 | 80 | 90 | 50 | 70 | 10 | Plant response rating, Blackgrass ([10]; 500 g ai/ha): 10; Plant response rating, Ryegrass, It. ([11]; 125 g ai/ha): 0; Plant response rating, Ryegrass, It. ([11]; 500 g ai/ha): 10; Plant response rating, Ragweed ([12]; 125 g ai/ha): 0; Plant response rating, Ragweed ([12]; 500 g ai/ha): 0; Plant response rating, Pigweed ([13]; 125 g ai/ha): 0; Plant response rating, Pigweed ([13]; 500 g ai/ha): 10; Plant response rating, Ragweed ([14]; 125 g ai/ha): 0; Plant response rating, Ragweed ([14]; 500 g ai/ha): 70; Plant response rating, Wheat ([15]; 125 g ai/ha): 0; Plant response rating, Wheat ([15]; 500 g ai/ha): 0; Plant response rating, Ryegrass, It. ([16]; 125 g ai/ha): 30; Plant response rating, Ryegrass, Italian [16]: 80; Plant response rating, Sedge, Umbrella [17]: 0; Plant response rating, Foxtail, Giant (Foxtail, Giant [18]; 125 g ai/ha): 0; Plant response rating, Foxtail, Giant (Foxtail, Giant [18]; 500 g ai/ha): 10 |
